# From ChEMBL document CHEMBL1201862, “PubChem BioAssay data set” (2004)
# Active and inactive are the calls of the source.
# Assays:
# [1] = biological target: T1, Corticotropin-releasing factor receptor 2/Corticotropin-releasing factor-binding protein (Homo sapiens, UniProt P24387+Q13324); assay: activators of CRF receptor 2 with binding protein – uHTS hits, confirmation (AID 602473); assay type: functional; conditions: read-out: EC50_Mean
# T1 sequence (Q13324 whole entry): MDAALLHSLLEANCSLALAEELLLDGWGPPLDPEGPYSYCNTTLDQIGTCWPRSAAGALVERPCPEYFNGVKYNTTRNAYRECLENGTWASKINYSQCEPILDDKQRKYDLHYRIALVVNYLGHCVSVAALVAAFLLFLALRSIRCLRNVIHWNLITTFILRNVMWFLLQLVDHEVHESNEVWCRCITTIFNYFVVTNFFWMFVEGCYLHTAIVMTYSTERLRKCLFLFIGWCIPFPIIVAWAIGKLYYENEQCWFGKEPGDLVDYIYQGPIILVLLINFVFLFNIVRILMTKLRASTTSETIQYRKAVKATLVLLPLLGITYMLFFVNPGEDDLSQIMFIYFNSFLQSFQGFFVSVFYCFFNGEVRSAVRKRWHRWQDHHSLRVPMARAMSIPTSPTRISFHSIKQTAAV
# T1 sequence (P24387 whole entry): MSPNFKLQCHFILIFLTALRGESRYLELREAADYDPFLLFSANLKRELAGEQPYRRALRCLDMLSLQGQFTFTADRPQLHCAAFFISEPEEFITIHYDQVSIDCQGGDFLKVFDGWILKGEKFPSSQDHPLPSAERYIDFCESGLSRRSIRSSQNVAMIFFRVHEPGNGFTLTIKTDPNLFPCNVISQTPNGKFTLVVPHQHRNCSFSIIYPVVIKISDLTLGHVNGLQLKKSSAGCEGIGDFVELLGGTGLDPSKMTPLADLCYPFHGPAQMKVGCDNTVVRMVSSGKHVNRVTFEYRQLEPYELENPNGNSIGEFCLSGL
# HEK293 = assay: inhibitors of LMP1-driven NF-kB reporter, dose response, cell-based, HEK293, luciferase, cherry-pick (AID 588343); assay type: functional; conditions: Homo sapiens
# [2] = biological target: T1, Corticotropin-releasing factor receptor 2/Corticotropin-releasing factor-binding protein; assay: Dose Response confirmation of uHTS hits for small molecule antagonists of the CRF-binding protein and CRF-R2 receptor complex.; assay type: functional; conditions: read-out: IC50_Mean
# [3] = test system: Streptococcus sp. 'group A'; assay: growth inhibition of control SK(-) GAS strain, dose response, counter-screen for streptokinase expression inhibitor project, luminescence, kanamycin, BacTiterGlo, confirmation (AID 1900); assay type: functional, organism-based
# Streptokinase A = biological target: T2, Streptokinase A (Streptococcus pyogenes serotype M1, UniProt P10520); assay: S. pyogenes streptokinase expression inhibitors, potency, dose response, plasminogen activation absorbance, OD405 (AID 1914); assay type: functional, Streptococcus pyogenes M1 GAS;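 also: secreted streptokinase activity via plasminogen activation per viability signal from cell pellet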
# T2 sequence (P10520 whole entry): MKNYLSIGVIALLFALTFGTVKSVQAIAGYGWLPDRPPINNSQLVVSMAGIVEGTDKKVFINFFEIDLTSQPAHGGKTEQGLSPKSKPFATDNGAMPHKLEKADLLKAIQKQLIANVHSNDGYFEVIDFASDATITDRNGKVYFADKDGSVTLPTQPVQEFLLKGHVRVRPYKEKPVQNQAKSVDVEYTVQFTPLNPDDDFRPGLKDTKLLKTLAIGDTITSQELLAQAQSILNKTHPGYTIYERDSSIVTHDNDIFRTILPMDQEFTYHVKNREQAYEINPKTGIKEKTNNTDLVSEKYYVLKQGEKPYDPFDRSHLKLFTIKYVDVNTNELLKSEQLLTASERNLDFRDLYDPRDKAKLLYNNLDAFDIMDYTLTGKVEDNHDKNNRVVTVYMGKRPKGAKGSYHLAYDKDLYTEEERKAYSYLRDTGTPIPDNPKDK
# Streptococcus = assay: Group A Streptococcus viability loss, dose response, counter-screen for streptokinase expression inhibitor project, luminescence, BacTiterGlo (AID 1915); assay type: functional, organism-based;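 also: potency for reduction of bacterial viability or growth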
# [4] = biological target: Peroxisome proliferator-activated receptor gamma/Nuclear receptor coactivator 2 (Homo sapiens, UniProt P37231); assay: (§1) TR-FRET dose response biochemical High Throughput Screening assay for agonists of the steroid receptor coactivator 2 (SRC-2) recruitment by the peroxisome proliferator-activated receptor gamma (PPAR gamma): non-selective agonists. [Related pubchem assays: 1297, 1032 ]; assay type: functional
# [5] = biological target: Peroxisome proliferator-activated receptor gamma/Nuclear receptor coactivator 1 (Homo sapiens, UniProt P37231); assay: as §1, with “1 (SRC-1)” for “2 (SRC-2)”, “assays (depositor defined):AID1300, AID1808, AID504735, AID631]” for “assays: 1297, 1032 ]”; assay type: protein assay
# [6] = HepG2 cell cytotoxicity, dose response, cytotoxicity control for Shn3 inhibitor project, CellTiter-Glo, cherry-picked (AID 624134); assay type: functional, cell-based
# [7] = biological target: Glucose-6-phosphate 1-dehydrogenase (Homo sapiens, UniProt P11413); assay: human G6PD enzyme inhibitors, dose response, selectivity assay for P. falciparum G6PD inhibitor project, biochemical, fluorescence (AID 504792); assay type: functional
# [8] = Shn3 3'UTR reporter inhibitors, dose response, cell-based, Clone20 osteoblasts, firefly luciferase, cherry-picked (AID 624132); assay type: functional;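 also: firefly luciferase luminescence from reporter carrying the Shn3 3'UTR in osteoblasts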
# [9] = biological target: Peroxisome proliferator-activated receptor gamma/Nuclear receptor coactivator 3 (Homo sapiens, UniProt P37231); assay: as §1, with “3 (SRC-3)” for “2 (SRC-2)”, “1301 (Confirmation screen.), 1048 (Primary screen.)]” for “1297, 1032 ]”; assay type: functional
# Large T antigen = Large T antigen (Simian virus 40, UniProt P03070); assay type: functional, Betapolyomavirus macacae;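 also: Confirmatory-stage PubChem screen for compounds that inhibit SV40 T antigen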
# [10] = biological target: T3, Histone-lysine N-methyltransferase NSD2 (Homo sapiens, UniProt O96028); assay type: biochemical
# T3 sequence (O96028 whole entry): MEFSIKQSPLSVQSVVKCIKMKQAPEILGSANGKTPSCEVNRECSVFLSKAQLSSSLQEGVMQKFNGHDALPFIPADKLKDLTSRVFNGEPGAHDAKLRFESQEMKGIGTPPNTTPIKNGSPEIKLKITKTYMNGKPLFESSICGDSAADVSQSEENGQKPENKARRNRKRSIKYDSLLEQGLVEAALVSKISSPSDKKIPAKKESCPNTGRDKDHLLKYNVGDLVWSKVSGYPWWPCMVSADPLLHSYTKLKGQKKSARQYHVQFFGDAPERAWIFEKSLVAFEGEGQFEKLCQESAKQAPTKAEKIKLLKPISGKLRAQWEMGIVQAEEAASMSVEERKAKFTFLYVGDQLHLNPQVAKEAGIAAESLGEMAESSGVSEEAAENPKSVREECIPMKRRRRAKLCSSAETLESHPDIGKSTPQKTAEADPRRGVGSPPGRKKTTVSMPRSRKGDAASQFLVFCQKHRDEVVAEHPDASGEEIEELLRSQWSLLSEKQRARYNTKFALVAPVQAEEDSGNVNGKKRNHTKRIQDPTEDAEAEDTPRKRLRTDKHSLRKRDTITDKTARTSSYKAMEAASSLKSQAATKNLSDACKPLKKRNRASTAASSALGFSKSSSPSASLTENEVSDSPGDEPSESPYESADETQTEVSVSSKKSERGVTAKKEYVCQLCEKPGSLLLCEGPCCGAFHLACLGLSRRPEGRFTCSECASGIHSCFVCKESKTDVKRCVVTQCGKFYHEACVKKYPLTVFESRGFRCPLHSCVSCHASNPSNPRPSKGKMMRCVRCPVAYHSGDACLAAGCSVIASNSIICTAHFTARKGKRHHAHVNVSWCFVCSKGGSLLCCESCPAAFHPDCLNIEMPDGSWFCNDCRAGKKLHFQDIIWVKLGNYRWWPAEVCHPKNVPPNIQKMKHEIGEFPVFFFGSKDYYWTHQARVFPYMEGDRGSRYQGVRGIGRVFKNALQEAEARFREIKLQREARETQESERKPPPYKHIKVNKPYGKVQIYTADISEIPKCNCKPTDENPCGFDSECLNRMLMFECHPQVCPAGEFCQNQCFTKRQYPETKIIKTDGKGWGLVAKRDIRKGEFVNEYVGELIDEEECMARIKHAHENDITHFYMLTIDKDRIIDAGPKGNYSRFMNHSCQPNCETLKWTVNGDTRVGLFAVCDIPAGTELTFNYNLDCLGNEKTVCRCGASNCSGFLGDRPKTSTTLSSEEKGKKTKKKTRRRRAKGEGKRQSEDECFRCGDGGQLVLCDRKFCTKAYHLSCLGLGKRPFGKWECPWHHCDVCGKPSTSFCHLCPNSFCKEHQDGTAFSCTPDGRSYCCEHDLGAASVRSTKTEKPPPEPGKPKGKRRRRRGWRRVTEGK
# [11] = biological target: T4, Heat shock factor protein 1 (Mus musculus, UniProt P38532); assay: inhibition of MG132-induced HSE-luciferase signal, confirmation, cell-based, NIH3T3, luminescence, dose retest (AID 2382); assay type: functional;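 also: NIH3T3 fibroblasts with HSF1-driven luciferase reporter stressed by proteasome inhibitor MG132; luminescence from HSF1-driven luciferase expression after 8 hours of MG132 stress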
# T4 sequence (P38532 whole entry): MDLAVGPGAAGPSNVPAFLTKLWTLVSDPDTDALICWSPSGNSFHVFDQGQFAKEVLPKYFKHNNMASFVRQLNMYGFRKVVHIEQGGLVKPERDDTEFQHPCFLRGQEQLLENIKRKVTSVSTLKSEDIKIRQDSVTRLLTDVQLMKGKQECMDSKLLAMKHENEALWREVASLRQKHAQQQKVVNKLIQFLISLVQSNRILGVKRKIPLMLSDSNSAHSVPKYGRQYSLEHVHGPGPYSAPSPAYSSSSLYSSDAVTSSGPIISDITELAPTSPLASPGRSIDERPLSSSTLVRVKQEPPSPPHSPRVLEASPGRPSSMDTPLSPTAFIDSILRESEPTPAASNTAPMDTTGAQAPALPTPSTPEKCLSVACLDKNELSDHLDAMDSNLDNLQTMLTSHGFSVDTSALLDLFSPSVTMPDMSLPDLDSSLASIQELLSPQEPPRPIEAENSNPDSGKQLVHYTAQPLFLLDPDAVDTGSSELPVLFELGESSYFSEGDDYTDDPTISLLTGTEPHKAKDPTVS
# Beta-galactosidase = Beta-galactosidase (Escherichia coli, UniProt Q8VNN2); assay: PubChem AID 485352; assay type: functional
# [12] = biological target: T5, Type-1 angiotensin II receptor (Homo sapiens, UniProt P30556); assay: AT1 receptor antagonists, dose response, selectivity assay for APJ receptor antagonist project, cell-based, uHTS hits (AID 463214); assay type: functional;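 also: antagonist potency against angiotensin II stimulated AT1 response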
# T5 sequence (P30556 whole entry): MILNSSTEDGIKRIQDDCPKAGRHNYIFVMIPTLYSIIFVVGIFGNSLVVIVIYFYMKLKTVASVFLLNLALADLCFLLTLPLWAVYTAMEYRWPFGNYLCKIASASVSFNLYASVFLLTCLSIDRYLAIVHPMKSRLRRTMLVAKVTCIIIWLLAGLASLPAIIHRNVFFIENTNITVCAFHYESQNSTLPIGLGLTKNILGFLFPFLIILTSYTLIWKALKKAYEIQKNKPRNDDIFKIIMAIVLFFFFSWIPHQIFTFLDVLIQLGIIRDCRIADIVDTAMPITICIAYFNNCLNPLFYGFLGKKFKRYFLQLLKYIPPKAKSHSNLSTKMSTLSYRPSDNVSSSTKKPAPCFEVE
# [13] = biological target: Dual specificity tyrosine-phosphorylation-regulated kinase 1A (Rattus norvegicus, UniProt Q63470); assay type: biochemical, Homo sapiens
# [14] = biological target: T6, Rac GTPase-activating protein 1 (Homo sapiens, UniProt Q9H0H5); assay: MgcRacGAP GTPase-activating activity inhibitors, confirmation, biochemical, ADP Hunter fluorescence, primary and confirmatory (AID 624330); assay type: functional
# T6 sequence (Q9H0H5 whole entry): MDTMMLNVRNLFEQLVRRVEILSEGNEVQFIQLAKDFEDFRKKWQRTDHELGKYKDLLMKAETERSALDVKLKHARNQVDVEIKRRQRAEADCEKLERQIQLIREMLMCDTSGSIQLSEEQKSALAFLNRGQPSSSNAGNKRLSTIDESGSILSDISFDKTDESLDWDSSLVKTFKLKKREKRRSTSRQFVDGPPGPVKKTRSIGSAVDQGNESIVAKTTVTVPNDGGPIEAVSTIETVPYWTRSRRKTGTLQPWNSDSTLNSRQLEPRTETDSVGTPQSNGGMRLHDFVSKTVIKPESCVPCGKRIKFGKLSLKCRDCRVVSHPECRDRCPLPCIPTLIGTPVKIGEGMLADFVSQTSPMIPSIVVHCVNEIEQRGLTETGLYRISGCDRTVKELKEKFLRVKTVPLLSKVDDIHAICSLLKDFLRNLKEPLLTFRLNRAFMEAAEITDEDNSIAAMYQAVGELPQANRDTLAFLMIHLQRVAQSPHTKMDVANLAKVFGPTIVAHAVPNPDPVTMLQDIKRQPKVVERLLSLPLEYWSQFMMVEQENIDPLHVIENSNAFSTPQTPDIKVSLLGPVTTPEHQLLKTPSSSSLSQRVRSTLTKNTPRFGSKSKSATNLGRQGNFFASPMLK
# [15] = HeLa cell cytotoxicity, dose response, cytotoxicity control for MgcRacGAP inhibitor project (AID 624300); assay type: functional
# Sequence of Peroxisome proliferator-activated receptor gamma/Nuclear receptor coactivator 3 (P37231 whole entry): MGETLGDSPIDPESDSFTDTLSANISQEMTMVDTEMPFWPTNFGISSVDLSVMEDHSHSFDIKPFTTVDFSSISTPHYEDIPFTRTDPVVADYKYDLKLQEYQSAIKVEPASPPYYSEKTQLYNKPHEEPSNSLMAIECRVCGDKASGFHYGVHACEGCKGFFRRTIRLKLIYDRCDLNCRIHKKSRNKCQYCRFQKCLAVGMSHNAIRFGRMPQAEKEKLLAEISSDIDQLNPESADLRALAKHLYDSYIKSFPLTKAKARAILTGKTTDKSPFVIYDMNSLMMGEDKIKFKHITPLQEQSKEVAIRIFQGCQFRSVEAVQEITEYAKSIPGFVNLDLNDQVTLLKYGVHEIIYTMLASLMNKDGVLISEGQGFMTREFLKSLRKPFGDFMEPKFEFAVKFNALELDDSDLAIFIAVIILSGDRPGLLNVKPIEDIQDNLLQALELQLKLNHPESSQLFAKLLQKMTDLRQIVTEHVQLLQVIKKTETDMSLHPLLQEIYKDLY
# Sequence of Peroxisome proliferator-activated receptor gamma/Nuclear receptor coactivator 3 (Q9Y6Q9 whole entry, further chain): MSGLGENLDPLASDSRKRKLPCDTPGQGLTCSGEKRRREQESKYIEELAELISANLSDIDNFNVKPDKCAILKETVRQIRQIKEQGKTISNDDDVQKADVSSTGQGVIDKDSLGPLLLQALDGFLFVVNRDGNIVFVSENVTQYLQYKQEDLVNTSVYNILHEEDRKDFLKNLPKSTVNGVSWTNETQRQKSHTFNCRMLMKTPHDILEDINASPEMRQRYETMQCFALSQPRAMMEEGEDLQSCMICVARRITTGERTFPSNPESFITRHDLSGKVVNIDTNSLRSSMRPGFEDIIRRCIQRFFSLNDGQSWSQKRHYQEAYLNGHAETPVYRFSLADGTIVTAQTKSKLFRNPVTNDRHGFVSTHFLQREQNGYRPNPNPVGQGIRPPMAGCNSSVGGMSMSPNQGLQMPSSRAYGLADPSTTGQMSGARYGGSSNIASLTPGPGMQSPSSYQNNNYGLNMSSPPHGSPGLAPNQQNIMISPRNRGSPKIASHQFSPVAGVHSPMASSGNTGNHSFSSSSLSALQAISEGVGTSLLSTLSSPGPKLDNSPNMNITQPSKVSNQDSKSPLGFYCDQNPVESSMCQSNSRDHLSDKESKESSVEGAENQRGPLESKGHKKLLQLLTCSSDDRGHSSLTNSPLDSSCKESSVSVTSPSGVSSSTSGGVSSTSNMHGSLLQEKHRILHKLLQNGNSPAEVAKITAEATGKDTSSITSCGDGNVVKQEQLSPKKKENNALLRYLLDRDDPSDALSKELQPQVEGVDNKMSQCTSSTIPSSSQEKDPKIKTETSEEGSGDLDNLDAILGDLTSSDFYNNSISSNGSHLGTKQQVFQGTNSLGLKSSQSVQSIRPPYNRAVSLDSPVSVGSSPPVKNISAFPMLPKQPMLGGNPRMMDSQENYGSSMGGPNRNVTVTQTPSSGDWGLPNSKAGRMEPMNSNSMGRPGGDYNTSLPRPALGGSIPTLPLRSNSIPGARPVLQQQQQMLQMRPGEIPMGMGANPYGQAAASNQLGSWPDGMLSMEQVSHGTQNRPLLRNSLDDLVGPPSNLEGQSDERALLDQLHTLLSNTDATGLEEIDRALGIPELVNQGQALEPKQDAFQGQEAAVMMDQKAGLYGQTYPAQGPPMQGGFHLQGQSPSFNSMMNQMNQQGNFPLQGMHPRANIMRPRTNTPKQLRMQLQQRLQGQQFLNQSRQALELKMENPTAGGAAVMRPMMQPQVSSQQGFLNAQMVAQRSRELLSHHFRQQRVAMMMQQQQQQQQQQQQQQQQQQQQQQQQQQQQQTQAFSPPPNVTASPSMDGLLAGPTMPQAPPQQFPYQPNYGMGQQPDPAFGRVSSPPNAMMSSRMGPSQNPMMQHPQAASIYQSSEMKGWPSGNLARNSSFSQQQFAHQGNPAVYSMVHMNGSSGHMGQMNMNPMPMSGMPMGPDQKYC
# Sequence of Peroxisome proliferator-activated receptor gamma/Nuclear receptor coactivator 2 (P37231 whole entry): as the sequence (P37231 whole entry) above
# Sequence of Peroxisome proliferator-activated receptor gamma/Nuclear receptor coactivator 2 (Q15596 whole entry, further chain): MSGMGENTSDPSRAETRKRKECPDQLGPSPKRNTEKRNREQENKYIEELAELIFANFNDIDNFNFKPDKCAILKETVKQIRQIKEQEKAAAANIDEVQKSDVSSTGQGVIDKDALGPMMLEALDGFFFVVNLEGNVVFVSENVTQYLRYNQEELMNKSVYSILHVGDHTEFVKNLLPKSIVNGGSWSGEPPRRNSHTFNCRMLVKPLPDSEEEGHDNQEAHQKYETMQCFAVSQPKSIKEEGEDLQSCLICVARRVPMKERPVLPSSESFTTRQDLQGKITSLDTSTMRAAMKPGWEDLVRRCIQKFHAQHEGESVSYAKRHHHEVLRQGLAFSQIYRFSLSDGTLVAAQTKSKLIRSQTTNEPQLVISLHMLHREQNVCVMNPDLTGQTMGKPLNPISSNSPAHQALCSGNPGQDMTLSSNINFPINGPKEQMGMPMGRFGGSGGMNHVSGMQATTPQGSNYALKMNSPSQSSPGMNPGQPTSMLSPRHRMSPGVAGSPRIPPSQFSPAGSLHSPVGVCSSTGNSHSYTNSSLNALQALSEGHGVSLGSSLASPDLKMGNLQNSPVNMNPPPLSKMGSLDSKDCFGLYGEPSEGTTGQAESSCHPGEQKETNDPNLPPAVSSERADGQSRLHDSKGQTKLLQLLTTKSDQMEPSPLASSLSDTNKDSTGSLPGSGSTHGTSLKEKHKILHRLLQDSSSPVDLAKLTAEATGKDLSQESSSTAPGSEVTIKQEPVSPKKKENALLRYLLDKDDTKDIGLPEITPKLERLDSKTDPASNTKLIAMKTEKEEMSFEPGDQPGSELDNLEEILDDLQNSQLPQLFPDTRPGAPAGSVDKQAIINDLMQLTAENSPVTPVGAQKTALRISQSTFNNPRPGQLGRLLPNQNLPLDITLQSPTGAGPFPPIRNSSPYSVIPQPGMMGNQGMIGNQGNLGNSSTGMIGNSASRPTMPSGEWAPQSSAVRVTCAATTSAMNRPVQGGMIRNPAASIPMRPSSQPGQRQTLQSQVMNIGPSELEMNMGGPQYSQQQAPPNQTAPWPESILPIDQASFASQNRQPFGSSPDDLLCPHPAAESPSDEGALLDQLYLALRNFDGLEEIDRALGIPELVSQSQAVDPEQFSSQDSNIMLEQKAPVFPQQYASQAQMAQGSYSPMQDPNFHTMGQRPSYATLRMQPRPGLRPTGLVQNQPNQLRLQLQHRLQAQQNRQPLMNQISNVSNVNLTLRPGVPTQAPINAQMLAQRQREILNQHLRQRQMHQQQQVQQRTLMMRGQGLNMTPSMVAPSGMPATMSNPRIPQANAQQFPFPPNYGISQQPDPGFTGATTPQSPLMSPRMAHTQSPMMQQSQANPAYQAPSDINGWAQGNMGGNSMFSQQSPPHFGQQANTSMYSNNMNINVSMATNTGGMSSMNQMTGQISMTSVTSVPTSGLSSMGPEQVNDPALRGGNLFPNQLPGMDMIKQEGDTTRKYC
# Sequence of Large T antigen (P03070 whole entry): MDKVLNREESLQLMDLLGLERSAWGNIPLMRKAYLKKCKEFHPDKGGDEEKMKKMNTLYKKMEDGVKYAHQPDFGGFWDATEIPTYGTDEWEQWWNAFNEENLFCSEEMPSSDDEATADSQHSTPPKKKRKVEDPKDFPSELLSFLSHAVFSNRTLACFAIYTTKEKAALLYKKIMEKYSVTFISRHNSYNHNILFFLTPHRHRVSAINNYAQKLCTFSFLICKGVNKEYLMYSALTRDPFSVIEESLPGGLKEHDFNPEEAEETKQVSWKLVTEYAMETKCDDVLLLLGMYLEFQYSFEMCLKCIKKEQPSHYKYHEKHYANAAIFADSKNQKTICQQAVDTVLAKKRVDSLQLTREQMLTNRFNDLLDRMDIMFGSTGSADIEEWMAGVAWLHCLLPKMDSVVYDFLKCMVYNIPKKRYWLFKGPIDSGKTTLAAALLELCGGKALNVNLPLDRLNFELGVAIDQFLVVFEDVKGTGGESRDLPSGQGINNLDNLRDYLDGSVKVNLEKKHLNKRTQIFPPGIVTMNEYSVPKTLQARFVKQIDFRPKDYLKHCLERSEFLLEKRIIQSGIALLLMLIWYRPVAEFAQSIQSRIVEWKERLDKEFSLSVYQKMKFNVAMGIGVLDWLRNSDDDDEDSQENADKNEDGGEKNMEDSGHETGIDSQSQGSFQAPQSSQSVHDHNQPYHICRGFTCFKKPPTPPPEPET
smiles,measurement,setting,value
NC(Cc1ccc(O)cc1)C(=O)NN=Cc1ccc(N(CCCl)CCCl)cc1 (stereo unspecified),EC50,[1],> 53 µM (inactive)
same,AC50,HEK293,31.4 µM (active)
same,IC50,[2],> 47.1 µM (inactive)
CCCCCCCCOC(=O)/C=C/c1c(C)nc(O)nc1O,EC50,[3],1.76 µM (active)
same,EC50,Streptokinase A,2.38 µM (active)
same,EC50,Streptococcus,> 150 µM (not active)
same,AC50,HEK293,2.59 µM (active)
CC1=NOC(=O)/C1=C\c1ccc(-c2ccccc2Br)o1,EC50,[4],5.02 µM (active)
same,EC50,[5],9.24 µM (active)
same,AC50,[6],> 70 µM (inactive)
same,IC50,[7],> 80 µM (inactive)
same,AC50,[8],6.48 µM (active)
same,EC50,[9],> 79.4 µM (not active)
same,IC50,Large T antigen,16.4 µM (active)
same,AC50,[10],> 20 µM (inactive)
Cn1c(=O)cc(SCC(=O)N2CCN(C(=O)c3ccco3)CC2)c2ccccc21,EC50,[4],> 79.4 µM (not active)
same,EC50,[5],> 79.4 µM (inactive)
same,EC50,[11],> 195 µM (not active)
same,EC50,[9],> 79.4 µM (not active)
COc1ccc(C(=O)CNc2ccccc2CO)cc1,EC50,Beta-galactosidase,> 40 µM (inactive)
same,IC50,[12],26.1 µM (not active)
Cc1ccnc(Nc2nc(-c3ccc(O)c(O)c3)cs2)c1,AC50,[13],10.1 µM (active)
same,IC50,[14],41.3 µM (active)
same,CC50,[15],69.5 µM (active)
COCCNC(=O)c1ccc2c(c1)nc(C)n2-c1cccc(F)c1,AC50,[13],98.8 µM (active)
Cc1[nH][nH]c(=O)c1N=Nc1ccccc1Cl,AC50,[13],28.9 µM (active)
